These molecules were tested against T1, biotinylated wild-type menin and MLL-AF9 fusion protein (menin/MLL binding) (Homo sapiens, UniProt O00255) (assay: Assay 1: menin/MLL binding AlphaLISA assay, wild-type menin). Conditions: Table 30; column head does not say wild-type or mutated menin.
T1 construct: made in house; host or cells: menin: E. coli; MLL-AF9-FLAG: HEK293 cells, used as cleared lysate
T1 sequence (O00255 1-610): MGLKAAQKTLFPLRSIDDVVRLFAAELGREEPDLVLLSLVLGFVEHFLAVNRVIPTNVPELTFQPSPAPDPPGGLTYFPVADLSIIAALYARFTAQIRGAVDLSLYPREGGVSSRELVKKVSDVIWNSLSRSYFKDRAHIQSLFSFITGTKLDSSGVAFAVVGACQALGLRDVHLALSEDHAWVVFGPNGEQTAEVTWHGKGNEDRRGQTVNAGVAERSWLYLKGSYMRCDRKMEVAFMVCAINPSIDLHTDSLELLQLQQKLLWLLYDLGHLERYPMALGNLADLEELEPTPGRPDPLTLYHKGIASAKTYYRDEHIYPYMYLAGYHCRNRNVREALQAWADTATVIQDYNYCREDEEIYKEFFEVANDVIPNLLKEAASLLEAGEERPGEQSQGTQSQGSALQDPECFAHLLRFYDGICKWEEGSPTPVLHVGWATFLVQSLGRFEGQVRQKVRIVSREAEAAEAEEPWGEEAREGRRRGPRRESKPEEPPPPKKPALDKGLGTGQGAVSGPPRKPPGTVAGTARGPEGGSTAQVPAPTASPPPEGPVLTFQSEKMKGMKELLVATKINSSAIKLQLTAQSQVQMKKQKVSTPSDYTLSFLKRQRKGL
Protocol: Potencies of inhibitor compounds against menin/MLL binding were assessed by AlphaLISA assay using biotinylated (1) wild-type menin or (2) mutated menin (described in Huang et al, 2012, Nature, 482, 542-546) and MLL-AF9 fusion protein bearing a FLAG epitope at its C-terminus. Menin proteins were expressed in E. coli and covalently modified with biotin using EZ-Link™ Sulfo-NHS-Biotin (ThermoFisher Cat.No. 21217) according to manufacturer's protocol. MLL1-1,396 fused to AF91-92 and the C-terminal FLAG peptide was expressed in HEK293 cells and used as a lysate cleared at 21,000×g for 10 min.
Compounds (2 μL of solutions in DMSO) were dispensed in white 96-well half-area plates (Corning Cat.No. 3693) and incubated for 30 min at RT with 5 nM biotinylated menin and appropriate amount of MLL-AF9-FLAG lysate in 40 μL of 50 mM Tris-HCl buffer pH 7.4 containing 5% (v/v) DMSO, 50 mM NaCl, 0.01% (w/v) bovine serum albumin (BSA) and 1 mM DTT. To this incubation mixture, 40 μL of AlphaLISA anti-FLAG acceptor (PerkinElmer Cat.No. AL112C) and streptavidin donor (PerkinElmer Cat.No. 6760002) beads (10 μg/mL each) was added and incubation continued at RT for 60 min. Alpha (amplified luminescent proximity homogeneous assay) signal was measured on an Envision multi-label plate reader at the end of the incubation. All steps were conducted under dim fluorescent light.
These percent inhibition values were regressed against compound concentrations in the assay using four parameter logit non-linear curve fitting (XLFit, IDBS). The IC50 values were derived from the curve fitting as inflection points on the dose-response curves and are set out in Table 30 below.

SMILES	IC50 [nM]
O=c1[nH]c2ccc(CN3CCC4(CCN(c5ncncc5Oc5ccc(F)cc5-c5ccccc5C(F)(F)F)C4)C3)cc2[nH]1 (stereo not shown) [Example 50, 5-((7-(5-((5-fluoro-2′-(trifluoromethyl)-[1,1′-biphenyl]-2-yl)oxy)pyrimidin-4-yl)-2,7-diazaspiro[4.4]nonan-2-yl)methyl)-1H-benzo[d]imidazol-2(3H)-one]	< 100
CC(C)n1nccc1-c1cc(F)ccc1Oc1cncnc1N1CCC2(CCN(C(=O)C(N)C3CCCCC3)C2)C1 (single isomer, unassigned) [Example 206C, 2-amino-2-cyclohexyl-1-(7-(5-(4-fluoro-2-(1-isopropyl-1H-pyrazol-5-yl)phenoxy)pyrimidin-4-yl)-2,7-diazaspiro[4.4]nonan-2-yl)ethanone]	100 to 1000
CC(C)NS(=O)(=O)c1cc(F)ccc1Oc1cncnc1N1CC2(CN(CC3CCOCC3)C2)C1 [Example 32, 5-fluoro-N-isopropyl-2-((4-(6-((tetrahydro-2H-pyran-4-yl)methyl)-2,6-diazaspiro[3.3]heptan-2-yl)pyrimidin-5-yl)oxy)benzenesulfonamide]	< 100
CC(C)c1ccccc1-c1cc(F)ccc1Nc1cnccc1N1CC2(CN(CC3CCOCC3)C2)C1 [Example 30, N-(5-fluoro-2′-isopropyl-[1,1′-biphenyl]-2-yl)-4-(6-((tetrahydro-2H-pyran-4-yl)methyl)-2,6-diazaspiro[3.3]heptan-2-yl)pyridin-3-amine]	< 100
CN(C)C(=O)c1csc(N2CCC3(CCN(c4ncncc4Oc4ccc(F)cc4-c4ccc(C#N)cc4C4CC4)C3)C2)n1 (stereo not shown) [Example 58, 2-(7-(5-((4′-cyano-2′-cyclopropyl-5-fluoro-[1,1′-biphenyl]-2-yl)oxy)pyrimidin-4-yl)-2,7-diazaspiro[4.4]nonan-2-yl)-N,N-dimethylthiazole-4-carboxamide]	100 to 1000
CC(C)c1ccccc1-c1cc(F)ccc1Nc1cncnc1N1CCC2(CCN(Cc3ccc4[nH]c(=O)[nH]c4c3)C2)C1 (stereo not shown) [Example 243, 5-((7-(5-((5-fluoro-2′-isopropyl-[1,1′-biphenyl]-2-yl)amino)pyrimidin-4-yl)-2,7-diazaspiro [4.4]nonan-2-yl)methyl)-1,3-dihydro-2H-benzo[d]imidazol-2-one]	< 100
N#Cc1ccc(-c2cc(F)ccc2Oc2cncnc2N2CCC3(CCN(c4nc(C(=O)O)cs4)C3)C2)c(C2CC2)c1 (stereo not shown) [Example 56, 2-(7-(5-((4′-cyano-2′-cyclopropyl-5-fluoro-[1,1′-biphenyl]-2-yl)oxy)pyrimidin-4-yl)-2,7-diazaspiro[4.4]nonan-2-yl)thiazole-4-carboxylicacid]	≥ 1000
CC(C)n1nccc1-c1cc(F)ccc1Oc1cncnc1N1CCC2(CC(=O)N(Cc3ccc4[nH]c(=O)[nH]c4c3)C2)C1 (stereo not shown) [Example 13, 5-((7-(5-(4-fluoro-2-(1-isopropyl-1H-pyrazol-5-yl)phenoxy)pyrimidin-4-yl)-3-oxo-2,7-diazaspiro[4.4]nonan-2-yl)methyl)-1H-benzo[d]imidazol-2(3H)-one]	< 100
CP(C)(=O)c1cc(F)ccc1Oc1cncnc1N1CCC2(CCN(Cc3ccc4[nH]c(=O)[nH]c4c3)C2)C1 (stereo not shown) [Example 17, 5-((7-(5-(2-(dimethylphosphoryl)-4-fluorophenoxy)pyrimidin-4-yl)-2,7-diazaspiro[4.4]nonan-2-yl)methyl)-1H-benzo[d]imidazol-2(3H)-one]	100 to 1000
CC(C)CN1CC2(CCN(c3ncncc3Nc3ccc(F)cc3-c3ccccc3C(C)C)CC2)C1 [Example 246, N-(5-fluoro-2′-isopropyl-[1,1′-biphenyl]-2-yl)-4-(2-isobutyl-2,7-diazaspiro[3.5]nonan-7-yl) pyrimidin-5-amine]	< 100
CC(C)CN1CC2(CCN(c3ncncc3Nc3ccc(F)cc3-c3ccccc3OC(C)C)CC2)C1 [Example 245, N-(5-fluoro-2′-isopropoxy-[1,1′-biphenyl]-2-yl)-4-(2-isobutyl-2,7-diazaspiro[3.5]nonan-7-yl) pyrimidin-5-amine]	< 100
CCc1ccccc1-c1cc(F)ccc1Nc1cncnc1N1CCC2(CC1)CN(CC(C)(C)O)C2 [Example 71, 1-(7-(5-((2′-ethyl-5-fluoro-[1,1′-biphenyl]-2-yl)amino)pyrimidin-4-yl)-2,7-diazaspiro[3.5]nonan-2-yl)-2-methylpropan-2-ol]	< 100
CC(C)n1nccc1-c1cc(F)ccc1Oc1cncnc1N1CCC2(CCN(C(=O)C(N)C3CCCCC3)C2)C1 (single isomer, unassigned) [Example 206B, 2-amino-2-cyclohexyl-1-(7-(5-(4-fluoro-2-(1-isopropyl-1H-pyrazol-5-yl)phenoxy)pyrimidin-4-yl)-2,7-diazaspiro[4.4]nonan-2-yl)ethanone]	100 to 1000
CC(C)(F)c1cc(F)ccc1-c1cc(F)ccc1Oc1cncnc1N1CC2(CN(CC3CCOCC3)C2)C1 [Example 31, 2-(5-((4′,5-difluoro-2′-(2-fluoropropan-2-yl)-[1,1′-biphenyl]-2-yl)oxy)pyrimidin-4-yl)-6-((tetrahydro-2H-pyran-4-yl)methyl)-2,6-diazaspiro[3.3]heptane]	< 100
O=c1[nH]c2ccc(CN3CCC4(CCN(c5ncncc5Oc5ccc(F)cc5-c5ccccc5C5CC5)C4)C3)cc2[nH]1 (stereo not shown) [Example 49, 5-((7-(5-((2′-cyclopropyl-5-fluoro-[1,1′-biphenyl]-2-yl)oxy)pyrimidin-4-yl)-2,7-diazaspiro[4.4]nonan-2-yl)methyl)-1H-benzo[d]imidazol-2(3H)-one]	< 100
Cc1noc(C(C)C)c1-c1cc(F)ccc1Nc1cncnc1N1CC2(CN(CC3CCOCC3)C2)C1 [Example 14A, N-(4-fluoro-2-(5-isopropyl-3-methylisoxazol-4-yl)phenyl)-4-(6-((tetrahydro-2H-pyran-4-yl)methyl)-2,6-diazaspiro[3.3]heptan-2-yl)pyrimidin-5-amine]	< 100
CC(C)c1ncncc1-c1cc(F)ccc1Oc1cncnc1N1CCC2(CC(N3CCc4cc(F)ccc4C3)CO2)C1 (stereo not shown) [Example 157, 7-(5-(4-fluoro-2-(4-isopropylpyrimidin-5-yl)phenoxy)pyrimidin-4-yl)-3-(6-fluoro-3,4-dihydroisoquinolin-2(1H)-yl)-1-oxa-7-azaspiro[4.4]nonane]	< 100
CCc1ccccc1-c1cc(F)ccc1Nc1cncnc1N1CCC2(CC1)CN(CC(C)C)C2 [Example 247, N-(2′-ethyl-S-fluoro-[1,1′-biphenyl]-2-yl)-4-(2-isobutyl-2,7-diazaspiro[3.5]nonan-7-yl) pyrimidin-5-amine]	< 100
CCc1ccccc1-c1cc(F)ccc1Cc1cnccc1N1CC2(CN(CC3CCOCC3)C2)C1 [Example 78, 2-(3-((2′-ethyl-5-fluoro-[1,1′-biphenyl]-2-yl)methyl)pyridin-4-yl)-6-((tetrahydro-2H-pyran-4-yl)methyl)-2,6-diazaspiro[3.3]heptane]	100 to 1000
CC(C)c1ncncc1-c1cc(F)ccc1Nc1cncnc1N1CC2(CN(CC3CCOCC3)C2)C1 [Example 244, N-(4-fluoro-2-(4-isopropylpyrimidin-5-yl)phenyl)-4-(6-((tetrahydro-2H-pyran-4-yl)methyl)-2,6-diazaspiro[3.3]heptan-2-yl) pyrimidin-5-amine]	< 100
CC(C)c1ncncc1-c1cc(F)ccc1Oc1cncnc1N1CCC2(CCC(Cc3ccccc3)C2)C1 (stereo not shown) [Example 59, 7-benzyl-2-(5-(4-fluoro-2-(4-isopropylpyrimidin-5-yl)phenoxy)pyrimidin-4-yl)-2-azaspiro[4.4]nonane]	≥ 1000
CC(C)N(C(=O)c1cc(F)ccc1Oc1cncnc1N1CCC2(CC(O)C(Cc3ccc4[nH]c(=O)[nH]c4c3)C2)C1)C(C)C (single isomer, unassigned) [Example 23B, 5-fluoro-2-((4-(7-hydroxy-8-((2-oxo-2,3-dihydro-1H-benzo[d]imidazol-5-yl)methyl)-2-azaspiro[4.4]nonan-2-yl)pyrimidin-5-yl)oxy)-N,N-diisopropylbenzamide]	100 to 1000

From patent US12312359B2 (Vitae Pharmaceuticals, LLC, priority 2016, dated 2025)
